Test results published in paper PMC8037814, “Polymorphic Characterization, Pharmacokinetics, and Anti-Inflammatory Activity of Ginsenoside Compound K Polymorphs” (Molecules, 2021).
Values joined by “and” are separate entries in the source; they are usually repeats but may differ in a detail not shown here. Identical values can stand only once.

Legend:
[1] = Pharmacokinetics after oral administration of CK polymorphs in rats (20 mg/kg); format: in vivo, Sprague-Dawley rats; details: for Fabs (absolute bioavailability): p.o. 20 mg/kg vs i.v. 10 mg/kg, dose-adjusted AUC ratio; for t1/2z / AUC(0–t) / AUC(0–∞) / CLz/F / Cmax / Vz/F: p.o. 20 mg/kg, 20 mg/kg
[2] = system: carrageenan-induced acute paw inflammation; test: Paw swelling test induced by carrageenan in rats; format: in vivo, Sprague-Dawley rats; parameters: paw volume: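 right hind paw volume measured with a plethysmometer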; details: listed as From III; for paw volume / paw edema: mean±SD of 6 rats; for edema inhibition: versus model group
In short: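 Rats (six per group, half of each sex) received compound at 10 or 20 mg/kg, suspended in 0.5% CMC-Na, before carrageenan challenge. Paw edema (%) = (Vn − V0)/V0 × 100 over time; inhibitory rate relative to model group, compared by t-test.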

[3] = Pharmacokinetics after oral administration of CK polymorphs in rats (20 mg/kg); format: in vivo, Sprague-Dawley rats; details: p.o. 20 mg/kg, individual rats 1-3
[4] = DSC thermal analysis of CK polymorphs; format: physicochemical; details: 20 K/min from 20 to 400 °C, dry nitrogen flow
Procedure: DSC measurements were performed on a DSC204 Phoenix calorimeter (NETZSCH, Selb, Germany) with a heating rate of 20 K/min from 20 to 400 °C. The dry nitrogen flow was about 50 mL/min. Data were analyzed using NETZSCH analysis software.

[5] = 10 mg/kg p.o. qd 3 days, 3h after carrageenan
[6] = 10 mg/kg p.o. qd 3 days, 4h after carrageenan
[7] = 10 mg/kg p.o. qd 3 days, 5h after carrageenan
[8] = 10 mg/kg p.o. qd 3 days, 6h after carrageenan
[9] = 20 mg/kg p.o. qd 3 days, 3h after carrageenan
[10] = 20 mg/kg p.o. qd 3 days, 4h after carrageenan
[11] = 20 mg/kg p.o. qd 3 days, 5h after carrageenan
[12] = 20 mg/kg p.o. qd 3 days, 6h after carrageenan

SMILES: CC(C)=CCCC(C)(OC1OC(CO)C(O)C(O)C1O)C1CCC2(C)C1C(O)CC1C3(C)CCC(O)C(C)(C)C3CCC12C [Form III, 20-O-β-D-glucopyranosyl-20(S)-protopanaxadiol]
- Fabs (absolute bioavailability) ([1]; female rats): 5.85%
- t1/2z ([1]; female rats, individual rats 1-3): 2.82 h and 3.06 h and 2.56 h
- AUC(0–t) ([1]; female rats, mean ± SD (n = 3)): 1.86955 ± 0.61865 µg·h/mL and 1.8696 ± 0.61865 µg·h/mL
- AUC(0–∞) ([1]; female rats, mean ± SD (n = 3)): 1.89619 ± 0.60412 µg·h/mL and 1.8962 ± 0.60412 µg·h/mL
- CLz/F ([1]; female rats, mean ± SD (n = 3)): 11.19 ± 3.02 L/h/kg and 11.2 ± 3.02 L/h/kg
- Cmax ([1]; female rats, mean ± SD (n = 3)): 0.35512 ± 0.07998 µg/mL and 0.3551 ± 0.07998 µg/mL
- Vz/F ([1]; female rats, mean ± SD (n = 3)): 44.76 ± 9.37 L/kg and 44.8 ± 9.37 L/kg
- t1/2z ([1]; female rats, mean ± SD (n = 3)): 2.81 ± 0.25 h and 2.8 ± 0.25 h
- Fabs (absolute bioavailability) ([1]; male rats): 3.90%
- Vz/F ([1]; male rats, individual rats 1-3): 148.10 L/kg and 49.55 L/kg and 83.24 L/kg
- AUC(0–t) ([1]; male rats, mean ± SD (n = 3)): 1.17183 ± 0.46265 µg·h/mL and 1.1718 ± 0.46265 µg·h/mL
- AUC(0–∞) ([1]; male rats, mean ± SD (n = 3)): 1.18348 ± 0.46608 µg·h/mL and 1.1835 ± 0.46608 µg·h/mL
- CLz/F ([1]; male rats, mean ± SD (n = 3)): 19.36 ± 9.46 L/h/kg and 19.4 ± 9.46 L/h/kg
- Cmax ([1]; male rats, mean ± SD (n = 3)): 0.15115 ± 0.06445 µg/mL and 0.1512 ± 0.06445 µg/mL
- Vz/F ([1]; male rats, mean ± SD (n = 3)): 93.63 ± 50.09 L/kg and 93.6 ± 50.1 L/kg
- t1/2z ([1]; male rats, mean ± SD (n = 3)): 3.3 ± 0.58 h
- paw volume ([2]; 10 mg/kg p.o. qd 3 days, 0h (before carrageenan)): 1.60±0.11
- paw edema [2, 5]: 56.76±9.61%
- paw volume [2, 5]: 2.50±0.06
- edema inhibition [2, 5]: 11.69%
- paw edema [2, 6]: 58.19±18.49%
- paw volume [2, 6]: 2.52±0.17
- edema inhibition [2, 6]: 6.69%
- paw edema [2, 7]: 42.15±12.34%
- paw volume [2, 7]: 2.27±0.14
- edema inhibition [2, 7]: 18.56%
- paw edema [2, 8]: 30.81±14.08%
- paw volume [2, 8]: 2.08±0.15
- edema inhibition [2, 8]: 21.63%
- paw volume ([2]; 20 mg/kg p.o. qd 3 days, 0h (before carrageenan)): 1.63±0.12
- paw edema [2, 9]: 55.29±13.62%
- paw volume [2, 9]: 2.53±0.25
- edema inhibition [2, 9]: 13.98%
- paw edema [2, 10]: 48.28±7.79%
- paw volume [2, 10]: 2.42±0.13
- edema inhibition [2, 10]: 22.59%
- paw edema [2, 11]: 34.20±12.28%
- paw volume [2, 11]: 2.18±0.15
- edema inhibition [2, 11]: 33.94%
- paw edema [2, 12]: 27.94±7.14%
- paw volume [2, 12]: 2.08±0.08
- edema inhibition [2, 12]: 28.94%
- AUC(0-t) ([3]; female rats): 1.5772 µg·h/mL and 2.58019 µg·h/mL and 1.45126 µg·h/mL
- AUC(0-∞) ([3]; female rats): 1.58268 µg·h/mL and 2.59262 µg·h/mL and 1.51329 µg·h/mL
- CLz/F ([3]; female rats): 12.64 L/h/kg and 7.71 L/h/kg and 13.22 L/h/kg
- Cmax ([3]; female rats): 0.26379 µg/mL and 0.41266 µg/mL and 0.38892 µg/mL
- Vz/F ([3]; female rats): 51.35 L/kg and 34.03 L/kg and 48.90 L/kg
- AUC(0-t) ([3]; male rats): 0.65621 µg·h/mL and 1.55066 µg·h/mL and 1.30863 µg·h/mL
- AUC(0-∞) ([3]; male rats): 0.66223 µg·h/mL and 1.56011 µg·h/mL and 1.3281 µg·h/mL
- CLz/F ([3]; male rats): 30.20 L/h/kg and 12.82 L/h/kg and 15.06 L/h/kg
- Cmax ([3]; male rats): 0.09026 µg/mL and 0.14454 µg/mL and 0.21865 µg/mL
- t1/2z ([3]; male rats): 2.68 h and 3.83 h and 3.40 h
- DSC onset of the decomposition endotherm (thermodynamical stability) [4]: 255.9 °C
